# According to ChEMBL document CHEMBL1212848 (Bioorg Med Chem, 2010):
# The source made the active and inactive calls. No cut-off for these calls is given here.
# Legend:
# Estrogen receptor = target: T1, Estrogen receptor (Homo sapiens, UniProt P03372); experiment: biochemical
# T1 sequence (P03372 whole entry): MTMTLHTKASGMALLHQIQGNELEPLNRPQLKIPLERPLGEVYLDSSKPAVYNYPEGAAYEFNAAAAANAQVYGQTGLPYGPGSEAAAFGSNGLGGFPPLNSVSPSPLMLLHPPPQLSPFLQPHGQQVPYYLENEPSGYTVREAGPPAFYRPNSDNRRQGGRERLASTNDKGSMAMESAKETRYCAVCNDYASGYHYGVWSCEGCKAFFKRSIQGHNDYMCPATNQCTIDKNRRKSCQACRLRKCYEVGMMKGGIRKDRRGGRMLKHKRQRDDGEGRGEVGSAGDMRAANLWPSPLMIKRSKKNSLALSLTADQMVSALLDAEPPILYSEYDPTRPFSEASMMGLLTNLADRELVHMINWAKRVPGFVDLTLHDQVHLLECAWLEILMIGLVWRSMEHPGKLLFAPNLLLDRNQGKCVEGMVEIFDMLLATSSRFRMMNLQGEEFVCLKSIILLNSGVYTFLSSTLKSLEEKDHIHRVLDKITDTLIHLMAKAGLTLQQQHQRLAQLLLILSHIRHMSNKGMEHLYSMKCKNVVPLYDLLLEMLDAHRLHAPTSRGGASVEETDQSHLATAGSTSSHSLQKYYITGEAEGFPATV
# Description: Displacement of [2,4,6,7-3H]estradiol from human ERalpha expressed in HeLa cells after 18 hrs by liquid scintillation counting
# HeLa = experiment: Cellular uptake in human HeLa cells assessed as retention time at 2 uM after 48 hrs by HPLC-MS analysis; assay type: ADME, cell-based
# Cancer cell lines [1] = experiment: Cytotoxicity against human cervical cancer cells assessed as reduction of [3H]thymidine incorporation at 5 nM after 24 to 48 hrs by scintillation counting; assay type: functional, cell-based
# Cancer cell lines [2] = experiment: Cytotoxicity against human cervical cancer cells assessed as reduction of [3H]thymidine incorporation at 2 uM after 24 to 48 hrs by scintillation counting; assay type: functional, cell-based
# MCF7 [3] = experiment: Cytotoxicity against human MCF7 cells assessed as reduction of cell proliferation at 6 uM after 96 hrs by MTT assay; assay type: functional, cell-based
# MCF7 [4] = experiment: Cytotoxicity against human MCF7 cells assessed as reduction of cell proliferation at 1 nM to 1 uM after 96 hrs by MTT assay; assay type: functional, cell-based
# [5] = target: T2, Estrogen receptor (Homo sapiens) (UniProt P03372); experiment: Agonist activity at human ERalpha expressed in human HeLa cells coexpressing ERE-E1b-Luc assessed as transcriptional activation after 48 hrs by luciferase reporter gene assay relative to estradiol; assay type: functional, cell-based
# T2 sequence (whole entry): T1 sequence (P03372 whole entry)
Compound,Ki (Estrogen receptor),Time (HeLa),Activity [5],Activity (Cancer cell lines [1]),Activity (Cancer cell lines [2]),Activity (MCF7 [3]),Activity (MCF7 [4])
CCCC[N+](C)(C)CCOc1ccc(/C(=C(/CC)c2ccccc2)c2ccccc2)cc1.[Br-] [TAMOXIFEN BUTYL BROMIDE],13 nM,10 min,,Active,inactive,Active,inactive
CC/C(=C(\c1ccccc1)c1ccc(OCC[N+](C)(C)C(C)C)cc1)c1ccccc1.[Br-] [TAMOXIFEN ISOPROPYL BROMIDE],25.4 nM,10 min,50%,Active,inactive,Active,inactive
CCC[N+](C)(C)CCOc1ccc(/C(=C(/CC)c2ccccc2)c2ccccc2)cc1.[Br-] [TAMOXIFEN PROPYL BROMIDE],,9 min,,,,Active,inactive

# More lines, main results first:
Ki (Estrogen receptor),Time (HeLa),Activity [5],Compound,Activity (Cancer cell lines [1]),Activity (Cancer cell lines [2]),Activity (MCF7 [3]),Activity (MCF7 [4])
13.7 nM,8 min,,CC/C(=C(\c1ccccc1)c1ccc(OCC[N+](C)(C)CC)cc1)c1ccccc1.[Br-] [TAMOXIFEN ETHYL BROMIDE],,,Active,inactive
46.3 nM,5 min,,CC/C(=C(\c1ccccc1)c1ccc(OCC[N+](C)(C)C)cc1)c1ccccc1.[I-] [TAMOXIFEN METHYL IODIDE],,,Active,inactive
,9 min,,CC/C(=C(\c1ccccc1)c1ccc(OCCN(C)C)cc1)c1ccccc1 [TAMOXIFEN],,,Active,inactive
